These results are taken from US10513518B2, “Inhibitors of the renal outer medullary potassium channel” (Merck Sharp & Dohme Corp., priority 2015, dated 2019).

Broadly, the IC50 is the concentration needed to halve the response being measured.

For the experiment, the target named is hROMK (hKir1.1) (Homo sapiens (Human), UniProt P48048). The experiment in a line: Thallium Flux Assay (ROMK channel functional thallium flux assay, FLIPR-Tetra). It counts as cell-based. To be noted: HEK293 cells stably expressing hROMK (hKir1.1); 30 min incubation with test compound. As to the method: The following Thallium Flux Assay was performed on each of the final product compounds in the Examples.
Chain of hROMK (hKir1.1) (P48048 whole entry): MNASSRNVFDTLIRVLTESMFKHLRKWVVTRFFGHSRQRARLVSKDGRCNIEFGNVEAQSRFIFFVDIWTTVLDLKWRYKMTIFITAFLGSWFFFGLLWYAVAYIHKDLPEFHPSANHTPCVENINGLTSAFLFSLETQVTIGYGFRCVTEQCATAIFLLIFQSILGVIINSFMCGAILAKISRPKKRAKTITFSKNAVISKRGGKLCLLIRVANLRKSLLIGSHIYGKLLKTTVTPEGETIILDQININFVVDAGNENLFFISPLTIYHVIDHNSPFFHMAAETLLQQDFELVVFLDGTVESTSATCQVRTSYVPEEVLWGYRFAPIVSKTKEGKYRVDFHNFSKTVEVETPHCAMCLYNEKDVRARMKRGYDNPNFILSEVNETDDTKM
HEK293 cells stably expressing hROMK (hKir1.1) were grown at 37° C. in a 10% CO2 humidified incubator in complete growth media: Dulbecco's Modified Eagle Medium supplemented with non-essential amino acids, Penicillin/Streptomycin/Glutamine, G418 and FBS. At >80% confluency, aspirate the media from the flask and rinse with 10 mL Calcium/Magnesium-free PBS. 5 mL of 1× trypsin (prepared in Ca/Mg Free PBS) was added to a T-225 flask and the flask was returned to the 37° C./CO2 incubator for 2-3 minutes. The cell was dislodged by genitly banging the side of the flask by hand. The cells were titrated completely and then the cells were transferred to 25 mL complete media. The cells were centrifuged at 1,500 rpm for 6 min followed by resuspension in complete growth media and cell concentration was determined. 4E6 cells/T-225 flask attained >80% confluency in 4 days. Under ideal growth conditions and appropriate tissue culture practices, this cell line was stable for 40-45 passages.
FluxOR Kit Components (Invitrogen F10017)
• FluxOR™ Reagent (Component A) • FluxOR™ Assay Buffer (Component B)—10× Concentrate • PowerLoad™ Concentrate (Component C)—100× Concentrate • Probenecid (Component D)—Lyophilized sample is kept at −20° C. Water soluble, 100× after solubilization in 1 mL water. Store at 4° C. • FluxOR™ Chloride-free Buffer (Component E)—5× Concentrate • Potassium sulfate (K2SO4) Concentrate (Component F)—125 mM in water. Store at 4° C. • Thallium sulfate (TI2SO4) Concentrate (Component G)—50 mM in water. Store at 4° C. • DMSO (dimethyl sulfoxide, Component H)—1 mL (100%) Reagent Preparation: FluxOR Working Solutions • 1000× FluxOR™ Reagent: Reconstitute a vial of component A in 100 μl DMSO; Mix well; Store 10 μl aliquots at −20° C. • 1× FluxOR™ Assay Buffer: Dilute Component B 10-fold with water; Adjust pH to 7.4 with Hepes/NaOH; Filter and store at 4° C. • Probenecid/Assay Buffer: 100 mL of 1× FluxOR™ Assay Buffer; 1 mL of reconstituted component D; Store at 4° C. • Loading Buffer (per microplate): 10 μl 1000× FluxOR™ Reagent; 100 μl component C; 10 mL Probenecid/Assay Buffer • Compound Buffer (per microplate): 20 mL Probenecid/Assay Buffer; 0.3 mM ouabain (10 mM ouabain in water can be stored in amber bottle/aluminum foil at room temperature); Test compound • 1× FluxOR™ Chloride-Free Buffer: Prepare 1× working solution in water. Can be stored at room temperature • Stimulant Buffer (prepared at 5× final concentration in 1× FluxOR™ Chloride-Free Buffer): 7.5 mM Thallium sulfate and 0.75 mM Potassium sulfate (to give a final assay concentration of 3 mM Thallium/0.3 mM Potassium). Store at 4° C. when not in use. If kept sterile, this solution is good for months. Assay Protocol—
The ROMK channel functional thallium flux assay was performed in 384 wells, using the FLIPR-Tetra instrument. HEK-hKir1.1 cells were seeded in Poly-D-Lysine microplates and kept in a 37° C.-10% CO2 incubator overnight. On the day of the experiment, the growth media was replaced with the FluxOR™ reagent loading buffer and incubated, protected from light, at ambient temperature (23-25° C.) for 90 min. The loading buffer was replaced with assay buffer±test compound followed by 30 min incubation at ambient temperature, where the Thallium/Potassium stimulant was added to the microplate.
1. Seed HEK-hKir1.1 cells (50 μl at 20,000 cells/well) in 384-well PDL coated Microplates
2. Allow cells to adhere overnight in humidified 37° C./10% CO2 incubator
3. Completely remove cell growth media from microplate and replace with 25 μl loading buffer
4. Incubate Microplate at room temperature, protected form light, for 90 min
5. Remove loading buffer and replace with 25 μl 1× Assay Buffer±test compound.
6. Incubate microplate at room temperature, protected from light, for 30 min
7. At FLIPR-Tetra 384: Add stimulant (Thallium/Potassium) solution to microplate and monitor fluorescence. […]
In turn, `CC1=C(N2CCC3(CCCN(CC(O)c4ccc(-n5cnnn5)nc4C)CC3)C2=O)CCC1=O` (single isomer, unassigned) [Example 3B, 8-(2-hydroxy-2-(2-methyl-6-(1H-tetrazol-1-yl)pyridin-3-yl)ethyl)-2-(2-methyl-3-oxocyclopent-1-en-1-yl)-2,8-diazaspiro[4.6]undecan-1-one] had an IC50 of 86.3 nM.

Turning to `CC1=C(N2CCC3(CCN(C[C@H](O)c4ccc5c(c4C)COC5=O)CC3)C2=O)CCC1=O` [Example 19], the IC50 was determined as 62.2 nM.

`CC1=C(N2CCCC3(CCN(CC(O)c4ccc(-n5cnnn5)nc4C)CC3)C2=O)CCC1=O` (centres unmarked) [Example 32] showed an IC50 of 647 nM. `Cc1c([C@@H](O)CN2CCC3(CC2)CC(=O)N(C2=CC(=O)CC2)C3)ccc2c1COC2=O` [Example 12] registered an IC50 of 521 nM. With `Cc1nc(-n2cnnn2)ccc1C(O)CN1CCC2(CC1)CCN(C1=CS(=O)(=O)CC1)C2=O` (centres unmarked) [Example 15] the figure was 55.9 nM. As for `CC1=C(N2CCC3(CCN(CC(O)c4ccc(-n5cnnn5)cc4F)CC3)C2=O)CCC1=O` (centres unmarked) [Example 36], it took 531 nM to reach half-maximal inhibition (IC50). Take `Cc1nc(-n2cnnn2)ccc1C(O)CN1CCC2(CCCN(C3=CS(=O)(=O)CC3)C2=O)CC1` (centres unmarked) [Example 38]: the IC50 worked out at 88.7 nM. In turn, `Cc1nc(-n2cnnn2)ccc1C(O)CN1CCC2(CC1)CCN(C1=CC(=O)CC1)C2=O` (centres unmarked) [Example 14] showed an IC50 of 87 nM. The result for `Cc1nc(-n2cnnn2)ccc1C(O)CN1CCC2(CC1)CCN(C1=CS(=O)(=O)CC1)C2=O` (single isomer, unassigned) [Example 1, 2-(1,1-dioxido-4,5-dihydrothiophen-3-yl)-8-(2-hydroxy-2-(2-methyl-6-(1H-tetrazol-1-yl)pyridin-3-yl)ethyl)-2,8-diazaspiro[4.5]decan-1-one] reads 640 nM; that for `O=C1C=C(N2CCC3(CCN(CC(O)c4cnc(-n5cnnn5)c(F)c4)CC3)C2=O)CC1` (centres unmarked) [Example 31], 751 nM; that for “(1R,3R,5S)-8-((R)-2-hydroxy-2-(4-methyl-1-oxo-1,3-dihydroisobenzofuran-5-yl)ethyl)-1′-(2-methyl-3-oxocyclopent-1-en-1-yl)-8-azaspiro[bicyclo[3.2.1] octane-3,3′-pyrrolidin]-2′-one [Example 4]”, 474 nM. The result for `Cc1c([C@@H](O)CN2CCC3(CC2)CCN(C2=CS(=O)(=O)CC2)C3=O)ccc2c1COC2=O` [Example 16] reads 276 nM; that for `CC1=C(N2CCC3(CCN(C[C@H](O)c4ccc(-n5cnnn5)nc4)CC3)C2=O)CCC1=O` [Example 21], 118 nM; that for `CC1=C(N2CCC3(CCN(CC(O)c4ccc(-n5cnnn5)cc4C)CC3)C2=O)CCC1=O` (centres unmarked) [Example 27], 74.5 nM.

In turn, `CC1=C(N2CCC3(CCN(CC(O)c4ccc(-n5cnnn5)nn4)CC3)C2=O)CCC1=O` (centres unmarked) [Example 44] came in with an IC50 of 100 nM.

`CC1=C(N2CCC3(CCCN(CC(O)c4ccc(-n5cnnn5)nn4)CC3)C2=O)CCC1=O` (centres unmarked) [Example 43] displayed an IC50 of 568 nM. For the compound `CC1=C(N2CCC3(CCN(CC(O)c4ncc(-n5cnnn5)cc4C)CC3)C2=O)CCC1=O` (centres unmarked) [Example 25], the IC50 was determined as 347 nM.

Consider `CC1=C(N2CC3(CCN(C[C@H](O)c4ccc5c(c4C)COC5=O)CC3)CC2=O)CCC1=O` [Example 20], for which the IC50 worked out at 497 nM. With `CC1=C(N2CCOC3(CCN(C[C@H](O)c4ccc5c(c4C)COC5=O)CC3)C2=O)CCC1=O` [Example 45] the figure was 892 nM; with `Cc1c([C@@H](O)CN2CCC3(CC2)CCN(C2=CC(=O)CC2)C3=O)ccc2c1COC2=O` [Example 11], 122 nM. With `CC1=C(N2CCC3(CCCN(CC(O)c4ccc(-n5cnnn5)nc4C)CC3)C2=O)CCC1=O` (single isomer, unassigned) [Example 3A, 8-(2-hydroxy-2-(2-methyl-6-(1H-tetrazol-1-yl)pyridin-3-yl)ethyl)-2-(2-methyl-3-oxocyclopent-1-en-1-yl)-2,8-diazaspiro[4.6]undecan-1-one] the figure was 323 nM. The result for `CC1=C(N2CCC3(CCN(CC(O)c4ccc(-n5cnnn5)nc4C)CC3)C2=O)CCC1=O` (centres unmarked) [Example 18] reads 47.3 nM; that for `CC1=C(N2CCC3(CCN(CC(O)c4ncc(-n5cnnn5)cc4C)CC3)C2=O)CCC1=O` (centres unmarked) [Example 24], 386 nM. For `O=C1N(C2=CS(=O)(=O)CC2)CCC12CCN(C[C@H](O)c1ccc(-n3cnnn3)nc1)CC2` [Example 22], the IC50 is 114 nM. With “8(1R,3r,5S)-8-(2-hydroxy-2-(2-methyl-6-(1H-tetrazol-1-yl)60icycle60-3-yl)ethyl)-1′-(2-methyl-3-oxocyclopent-1-en-1-yl)-8-azaspiro[bicyclo[3.2.1]octane-3,3′-pyrrolidin]-2′-one [Example 5]” the figure was 49.1 nM. With `O=C1C=C(N2CCC3(CCN(C[C@H](O)c4ccc(-n5cnnn5)nc4)CC3)C2=O)CC1` [Example 23] the figure was 187 nM; with `CC1=C(N2CCC3(CCCN(C[C@H](O)c4ccc5c(c4C)COC5=O)CC3)C2=O)CCC1=O` (some centres unmarked) [Example 40], 71.5 nM; with `O=C1C=C(N2CCC3(CCN(CC(O)c4cnc(-n5cnnn5)c(F)c4)CC3)C2=O)CC1` (centres unmarked) [Example 30], 415 nM. With `O=C1C=C(N2CCCC3(CCN(CC(O)c4ccc(-n5cnnn5)cn4)CC3)C2=O)CC1` (centres unmarked) [Example 42] the figure was 59.7 nM.

`CC1=C(N2CCC3(CCN(CC(O)c4cnc(-n5cnnn5)c(F)c4)CC3)C2=O)CCC1=O` (centres unmarked) [Example 29]: the IC50 was 674 nM. `O=C1C=C(N2CCC3(CCN(CC(O)c4ccc(-n5cnnn5)cc4F)CC3)C2=O)CC1` (centres unmarked) [Example 37] returned an IC50 of 461 nM. With `Cc1nc(-n2cnnn2)ccc1C(O)CN1CCC2(CC1)CC(=O)N(C1=CC(=O)CC1)C2` (centres unmarked) [Example 13] the figure was 356 nM; with `CC1=C(N2CCC3(CCN(CC(O)c4ccc(-n5cnnn5)cc4C)CC3)C2=O)CCC1=O` (centres unmarked) [Example 26], 87.1 nM. `Cc1c([C@@H](O)CN2CCC3(CCCN(C4=CC(=O)CC4)C3=O)CC2)ccc2c1COC2=O` [Example 34] returned an IC50 of 10.9 nM. The result for `Cc1cc(-n2cnnn2)ccc1C(O)CN1CCC2(CCCN(C3=CC(=O)CC3)C2=O)CC1` (centres unmarked) [Example 41] reads 10.7 nM. With `Cc1nc(-n2cnnn2)ccc1C(O)CN1CCC2(CC1)CC(=O)N(C1=CS(=O)(=O)CC1)C2` (centres unmarked) [Example 17] the figure was 598 nM. The result for `CC1=C(N2CCC3(CCN(CC(O)c4cnc(-n5cnnn5)c(F)c4)CC3)C2=O)CCC1=O` (centres unmarked) [Example 28] reads 295 nM; that for `Cc1nc(-n2cnnn2)ccc1C(O)CN1CCC2(CCCN(C3=CC(=O)CC3)C2=O)CC1` (centres unmarked) [Example 33], 17.3 nM. With `CC1=C(N2CCC3(CCCN(C[C@H](O)c4ccc5c(c4C)COC5=O)CC3)C2=O)CCC1=O` (some centres unmarked) [Example 39], the IC50 is 15.1 nM. With `CC1=C(N2CCC3(CC4CCC(C3)N4CC(O)c3ccc(-n4cnnn4)cn3)C2=O)CCC1=O` [Example 6, (1R,3r,5S)-8-(2-(5-(1H-tetrazol-1-yl)pyridin-2-yl)-2-hydroxyethyl)-1′-(2-methyl-3-oxocyclopent-1-en-1-yl)-8-azaspiro[bicyclo[3.2.1]octane-3,3′-pyrrolidin]-2′-one] the figure was 294 nM; with `Cc1cc(-n2cnnn2)ccc1C(O)CN1CCC2(CC1)CCN(C1=CC(=O)CC1)C2=O` (centres unmarked) [Example 35], 196 nM.
